From patent publication US12492224B2, “Bicyclic peptide ligands specific for PD-L1” (BicycleTx Limited, priority 2018, dated 2025)
Where no end group is shown, it is not given here. [ ]: non-standard residue; d: D form. hArg = N=C(N)NCCCC[C@H](N)C(=O)O; Aad = N[C@@H](CCCC(=O)O)C(=O)O; Nva = CCC[C@H](N)C(=O)O

What follows are substances tested against T1, human PD-L1 (Homo sapiens, UniProt Q9NZQ7) (assay: PD-L1 SPR Binding Assay (Biacore), human). Settings: 25° C.
T1 construct: purchased Sino Biologicals or R&D systems
T1 sequence (Q9NZQ7 19-290): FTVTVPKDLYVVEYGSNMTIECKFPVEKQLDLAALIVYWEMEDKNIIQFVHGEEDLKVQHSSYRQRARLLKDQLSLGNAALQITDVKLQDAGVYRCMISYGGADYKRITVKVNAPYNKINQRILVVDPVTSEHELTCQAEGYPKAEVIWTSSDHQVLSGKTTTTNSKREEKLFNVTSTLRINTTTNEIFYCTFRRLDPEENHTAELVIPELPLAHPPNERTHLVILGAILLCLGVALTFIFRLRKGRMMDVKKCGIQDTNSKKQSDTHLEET
Protocol: The protein was desalted to remove uncoupled biotin using spin columns into PBS. For analysis of binding, a Biacore 3000 instrument was used utilizing a CM5 sensor chip (GE Healthcare). Streptavidin was immobilized on the chip using standard amine-coupling chemistry at 25° C. with HBS-N (10 mM HEPES, 0.15 M NaCl, pH 7.4) as the running buffer. The carboxymethyl dextran surface was activated with a 12 min injection of a 1:1 ratio of 0.4 M 1-ethyl-3-(3-dimethylaminopropyl) carbodiimide hydrochloride (EDC)/0.1 M N-hydroxy succinimide (NHS) at a flow rate of 10 μl/min. For capture of streptavidin, protein was diluted to 0.1 mg/ml in 10 mM sodium acetate (pH 4.5) and captured by injecting 70 μl onto the activated chip surface. Residual activated groups were blocked with a 7 min injection of 1 M ethanolamine (pH 8.5). Biotinylated PD-L1 stock was diluted 1:100 in HBS-N and captured on one flow cell at 5 μl/min to a level of 1000-1300 RU. Buffer was changed to PBS/0.05% Tween 20 and a dilution series of the peptides was prepared in this buffer with a final DMSO concentration of 0.5%. The top concentrations were 200 nM or 500 nM with 6 2-fold dilutions. The SPR analysis was run at 25° C. at a flow rate of Flow rate 50 μl/min with 60 seconds association and 400 seconds disassociation. Data were corrected for DMSO excluded volume effects. All data were double-referenced for blank injections and reference surface using standard processing procedures and data processing and kinetic fitting were performed using Scrubber software, version 2.0c (Biologic Software). Data were fitted using mass transport model allowing for mass transport effects where appropriate.
Work on “Ac-DKCS[Aad]GWLTMCQKLHLCPSH-COOH [BCY11853]” yielded a Kd of 17.6 nM.
In the case of SDKCSAGWLTMCQKLH[Nva]CA [BCY10083], the Kd is reported as 75 nM.
Work on SDKCSAGWLT[Nle]CQKLHLCA [BCY10058] yielded a Kd of 59.7 nM.
With SDKCS[Nle]GWLTMCQKLHLCA [BCY10062] the Kd was 23 nM.
Work on SDKCSAGWLTMCQK[Nle]HLCA [BCY10071] yielded a Kd of 58.2 nM.
Substance “Ac-EKCS[Aad]GWLTMCLKLHLC (cysteine pairing not given here) [BCY11826]” has a Kd of 18.2 nM.
“SDKCSAGWLTMCQK[Nva]HLCA (cysteine pairing not given here) [BCY10084]” showed a Kd of 43.2 nM.
“Ac-KCS[Aad]GWLTMCLKLHLC (cysteine pairing not given here) [BCY11824]” was tested, and the Kd was 60 nM.
SDKCS[Abu]GWLTMCQKLHLCA [BCY10055] was tested, and the Kd was 27.9 nM.
Ac-SDKCS[Aad]GWLTMCLKLHLCA [BCY11828] was tested, and the Kd was 16.6 nM.
Substance “Ac-SEKCS[Aad]GWLTMCLKLHLCPSH (cysteine pairing not given here) [BCY11831]” has a Kd of 13.2 nM.
“Ac-SEKCS[Aad]GWLTMCLKLHLC (cysteine pairing not given here) [BCY11825]” showed a Kd of 28.8 nM.
“Ac-[hArg]CS[Aad]GWLTMCLKLHLC (cysteine pairing not given here) [BCY11827]” was tested, and the Kd was 30 nM.
In the case of SDKCSAGWLTMC[Chg]KLHLCA [BCY10066], the Kd is reported as 14.4 nM.
With SD[HArg]CSAGWLTMCQKLHLCA [BCY10052] the Kd was 22.3 nM.
In the case of SDKCS[Aib]GWLTMCQKLHLCA [BCY10054], the Kd is reported as 31.2 nM.
SDKCSAGWLTMCQKLH[Nle]CA [BCY10074] gave a Kd of 36.1 nM.
Work on SDKCSAGWLTMCQ[Nle]LHLCA [BCY10068] yielded a Kd of 54.5 nM.
With SDKCSAGWLTMCQKL[Aib]LCA [BCY10073] the Kd was 15.8 nM.

These substances were tested against T2, PD-1/PD-L1 interaction (Homo sapiens, UniProt Q9NZQ7) (assay: PD-1/PD-L1 Blockade Bioassay (Jurkat PD-1 NFAT-luciferase / CHO-K1 PD-L1)). Settings: FIG. 1 and Table 6.
T2 construct: host or cells: CHO-K1 (human PD-L1) and Jurkat (human PD-1, NFAT-luciferase)
T2 sequence (Q9NZQ7 19-290): as above
Assay type: cell-based
Protocol: Effector Jurkat cells engineered to overexpress human PD-1 and express a luciferase gene under the NFAT response element were purchased from Promega. Target CHO-K1 cells which overexpress human PD-L1 and an engineered cell surface protein designed to activate the Jurkat's T cell receptor in an antigen-independent manner were also purchased from Promega. CHO-K1 cells were plated the day before the assay in Ham's F-12 Medium+10% FBS and were allowed to adhere to the plate. On the day of the assay, media was removed and Jurkat cells were plated with a dose response of test articles in RPMI1640 media with 1% FBS (80 μL total volume per well). […] After 6 hours of incubation at 37° C., 5% CO2, 80 μL of Bio-Glo reagent (Promega) was added to each well and allowed to equilibrate for 10 minutes at room temperature. Luminescence was read on the Clariostar plate reader (BMG LabTech). Fold induction was calculated by dividing the luminescence signal by the average of the background wells (wells with both cell lines and no test article). Data was graphed in Prism and fit to a 4-parameter logistic curve.
For “[Ac]SD[HArg]CS[Nle]GWLT[hPhe]CLKL[Aib]LCPSH [BCY10959]”, the “ability to block PD-1/PD-L1 interaction between PD-1 expressing T cells and CHO-K1 stable expressing PD-L1” value (“ability” for short) was “demonstrated the ability to block PD-1/PD-L1 interaction”.
For [Ac]SDKCSAGWLTMCKQLNLCPSH [BCY10467], the “ability” value was “demonstrated the ability to block PD-1/PD-L1 interaction”.
“[Ac]SDKCSAGWLTMCKQLNLCPSH-COOH [BCY10939]” was tested, and the “ability” value was “demonstrated the ability to block PD-1/PD-L1 interaction”.
